Measured values as given in paper PMC9945734 (BMC Medicine, 2023).

Legend:
MYBL2 promoter = assay: ChIP assay of KLF5 binding to the MYBL2 promoter; assay type: cell-based, human; settings: PC-3-KQ cells treated for 48 h
Method: ChIP assay was performed using the SimpleChIP Enzymatic Chromatin IP kit (Cat #: 9003s, Cell Signaling Technology) according to the manufacturer's instructions. Briefly, cells were treated with 1% formaldehyde for 10 min for cross-linking, quenched with glycine for 5 min at room temperature, collected, and digested with micrococcal nuclease for 20 min at 37°C. After stopping the reaction by adding EDTA, DNA was fragmented by sonication, and the extracts were incubated with KLF5 antibody (Cat #: 21017-1-AP, Proteintech) or IgG (Cat #: 2729P, Cell Signaling Technology). […]

PC-3-KR-Luc cells = assay: Bone metastasis assay, prevention mode; assay type: in vivo, Balb/c nude mice; settings: 100 mg/kg intragastric every day
Excerpt: (§1) Male Balb/c nude mice at 3-4 weeks old were purchased from Charles River (Beijing, China). Upon arrival at the Animal Center of the Southern University of Science and Technology (SUSTech), mice were quarantined for one week before use. All mice were maintained and handled following the National Institutes of Health guide for the Care and Use of Laboratory Animals. To measure if NTZ inhibits Ac-KLF5-induced bone metastasis, we used both prevention and therapy modes. […] Then the mice were randomly divided into vehicle and NTZ groups (six mice in each group) and received treatment at day 0. The tumor growth and body weight were determined every week. After 5 weeks of treatment, all mice were sacrificed and bone tissues and major organs were resected for hematoxylin and eosin (H&E) staining. The selection of 5 weeks for investigation is based on the pilot experiment, in which clear bone metastases formed at 5 weeks after injection but no tumors were detected in other organs, including the brain, liver, lung, spleen, heart, prostate, seminal vesicle, small intestine, and testes (data not shown). Tumor growth in the bone was determined once a week by in vivo BL imaging using the Living Image Software 4.4 (IVIS Spectrum, PerkinElmer Health Sciences, Massachusetts, USA). Ten minutes after intraperitoneal injection of D-luciferin sodium salt (15 mg/mL, 10 μL/g BW) (GM-040611, Genomeditech, Shanghai, China), bioluminescence images were acquired with the following conditions: open emission filter, exposure time = 60 s, binning = medium: 8, field of view = 12.9 ×12.9 cm, and f/stop = 1. Images were then analyzed using the Living Image 4.4 software (PerkinElmer). At the end of treatment, bioluminescence intensities were measured by photon flux of the region of interest (ROI) and compared between the vehicle and NTZ treatment groups. […] CC0113, […] Biotechnology, Beijing, China) was used as vehicle control, and NTZ was solved in CMC. NTZ was delivered into mice via intragastric administration (100 mg/kg BW) every day. Femurs were decalcified in ethylenediaminetetraacetic (EDTA) decalcification solution (Cat #: R20403-5L, OKA, Beijing, China) for 14-21 days. After decalcification, bone tissues were dehydrated in gradient ethanol from 70 to 95%, soaked in n-butanol for 6 h, and then embedded in paraffin. Tissue blocks were cut into 4 μm sections. After baking in an oven at 63°C for 1.5 h, tissue slides were deparaffinized with xylene, hydrated with gradient ethanol, and then stained with H&E (Cat #: BA4025, BaSO, Zhuhai, China). Slides were then mounted for analysis with neutral resins (Cat #: 25608-33-7, Sigma-Aldrich, MO, USA).

PC-3-KQ-Luc cells = assay: Bone metastasis assay, prevention mode; assay type: in vivo, Balb/c nude mice; settings: 100 mg/kg intragastric every day
Excerpt: as §1

## CC(=O)Oc1ccccc1C(=O)Nc1ncc([N+](=O)[O-])s1 [Nitazoxanide]
MYBL2 promoter
  KLF5^K369Q-bound DNA of MYBL2 promoter (-1242 to -1251): significantly decreased KLF5^K369Q-bound DNA
PC-3-KR-Luc cells
  tumor cell area in bone sections (H&E): not significantly affected
PC-3-KR-Luc cells; day 35
  bioluminescence intensity: did not have a significant effect
PC-3-KQ-Luc cells
  tumor cell area in bone sections (H&E): significantly decreased tumor cell area
PC-3-KQ-Luc cells; day 35
  bone metastasis, bioluminescence signals: dramatically reduced bone metastasis
